The values that follow are results of earlier work, collected in patent publication US7060463B2 (priority 2001, dated 2006).

This series addresses GST-Flag-rhARLBD (Macaca mulatta, UniProt Q6QT55).

SMILES strings stand for the structures.

GST-Flag-rhARLBD, sequence (Q6QT55 601-895): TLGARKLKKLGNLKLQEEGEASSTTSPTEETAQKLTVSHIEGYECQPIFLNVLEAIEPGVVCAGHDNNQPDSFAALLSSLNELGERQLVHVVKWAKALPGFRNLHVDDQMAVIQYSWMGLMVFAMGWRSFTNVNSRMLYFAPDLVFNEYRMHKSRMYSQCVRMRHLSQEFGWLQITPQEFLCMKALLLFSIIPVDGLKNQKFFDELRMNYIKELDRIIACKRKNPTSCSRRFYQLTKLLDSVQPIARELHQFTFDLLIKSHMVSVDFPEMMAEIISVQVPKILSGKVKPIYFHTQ

As for `C[C@]1(O)CC[C@H]2[C@@H]3CCC4=CC(=O)CCC4=C3C=C[C@@]21C` [R1881, 17b-hydroxy-17-methylestra-4,9,11-trien-3-one], the IC50 was about 1 nM.

The term IC50 denotes the concentration at which inhibition is half-maximal.
